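Values below derive from 48-hour exposures of cells grown in 96-well plates, with endpoints linearly interpolated between the two concentrations bracketing the appropriate inhibition level. GI50: concentration for 50% inhibition of growth. The concentration for full growth arrest is given as TGI.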
Legend:
Experiment in all cases: NCI anticancer screen, dose series, 48 h
MOLT-4 leukemia = test system: MOLT-4 leukemia
K-562 leukemia = test system: K-562 leukemia
ACHN renal = test system: ACHN renal
SK-MEL-28 melanoma = test system: SK-MEL-28 melanoma
TK-10 renal = test system: TK-10 renal
HCT-15 colon = test system: HCT-15 colon
RXF 393 renal = test system: RXF 393 renal
A549 NSCLC = test system: A549 NSCLC
MCF7 breast = test system: MCF7 breast
IGROV1 ovarian = test system: IGROV1 ovarian
NCI-H460 lung = test system: NCI-H460 lung
OVCAR-8 ovarian = test system: OVCAR-8 ovarian
SF-295 CNS = test system: SF-295 CNS
SR leukemia = test system: SR leukemia
UACC-62 melanoma = test system: UACC-62 melanoma
SK-MEL-5 melanoma = test system: SK-MEL-5 melanoma
SW-620 colon = test system: SW-620 colon
EKVX NSCLC = test system: EKVX NSCLC
SF-268 CNS = test system: SF-268 CNS
HOP-92 NSCLC = test system: HOP-92 NSCLC
CAKI-1 renal = test system: CAKI-1 renal
HCC-2998 colon = test system: HCC-2998 colon
BT-549 breast = test system: BT-549 breast
786-0 renal = test system: 786-0 renal
COLO 205 colon = test system: COLO 205 colon
KM12 colon = test system: KM12 colon
NCI-H226 lung = test system: NCI-H226 lung
MDA-MB-435 = test system: MDA-MB-435
DU-145 prostate = test system: DU-145 prostate
UO-31 renal = test system: UO-31 renal
SNB-19 CNS = test system: SNB-19 CNS
OVCAR-3 ovarian = test system: OVCAR-3 ovarian
NCI-H522 lung = test system: NCI-H522 lung
HOP-62 NSCLC = test system: HOP-62 NSCLC
U251 CNS = test system: U251 CNS
SNB-75 CNS = test system: SNB-75 CNS
SF-539 CNS = test system: SF-539 CNS
HS 578T breast = test system: HS 578T breast
OVCAR-5 ovarian = test system: OVCAR-5 ovarian
T-47D breast = test system: T-47D breast
A498 renal = test system: A498 renal
M14 melanoma = test system: M14 melanoma
MDA-MB-231 breast = test system: MDA-MB-231 breast
HCT-116 colon = test system: HCT-116 colon
UACC-257 melanoma = test system: UACC-257 melanoma
NCI/ADR-RES ovarian = test system: NCI/ADR-RES ovarian
MALME-3M melanoma = test system: MALME-3M melanoma
SK-OV-3 ovarian = test system: SK-OV-3 ovarian
SN12C renal = test system: SN12C renal
NCI-H23 lung = test system: NCI-H23 lung
HT29 colon = test system: HT29 colon
SK-MEL-2 melanoma = test system: SK-MEL-2 melanoma
PC-3 prostate = test system: PC-3 prostate
RPMI-8226 leukemia = test system: RPMI-8226 leukemia
CCRF-CEM leukemia = test system: CCRF-CEM leukemia

C=C(CN1CCc2ccccc2C1)c1ccc(C(=O)Nc2cccc(N)c2)cc1
GI50 (MOLT-4 leukemia): 6 µM | TGI (MOLT-4 leukemia): 28.6 µM | GI50 (K-562 leukemia): 7.53 µM | TGI (K-562 leukemia): 30 µM | GI50 (ACHN renal): 28.8 µM | TGI (ACHN renal): 87.1 µM | GI50 (SK-MEL-28 melanoma): 31.1 µM | TGI (SK-MEL-28 melanoma): > 100 µM | GI50 (TK-10 renal): 27.3 µM | TGI (TK-10 renal): 92.5 µM | GI50 (HCT-15 colon): 27.4 µM | TGI (HCT-15 colon): 69.8 µM | GI50 (RXF 393 renal): 19.1 µM | TGI (RXF 393 renal): 43.7 µM | GI50 (A549 NSCLC): 20.5 µM | TGI (A549 NSCLC): 61.2 µM | GI50 (MCF7 breast): 17.5 µM | TGI (MCF7 breast): 42.8 µM | GI50 (IGROV1 ovarian): 16 µM | TGI (IGROV1 ovarian): 47.2 µM | GI50 (NCI-H460 lung): 19.9 µM | TGI (NCI-H460 lung): 50 µM | GI50 (OVCAR-8 ovarian): 20.6 µM | TGI (OVCAR-8 ovarian): 44.7 µM | GI50 (SF-295 CNS): 20 µM | TGI (SF-295 CNS): 51.2 µM | GI50 (SR leukemia): 11.7 µM | TGI (SR leukemia): 54.8 µM | GI50 (UACC-62 melanoma): 17.1 µM | TGI (UACC-62 melanoma): 33.3 µM | GI50 (SK-MEL-5 melanoma): 13.6 µM | TGI (SK-MEL-5 melanoma): 28.3 µM | GI50 (SW-620 colon): 23 µM | TGI (SW-620 colon): 52.1 µM | GI50 (EKVX NSCLC): 9.48 µM | TGI (EKVX NSCLC): 56.2 µM | GI50 (SF-268 CNS): 19 µM | TGI (SF-268 CNS): 45.9 µM | GI50 (HOP-92 NSCLC): 63.9 µM | TGI (HOP-92 NSCLC): > 100 µM | GI50 (CAKI-1 renal): 16.3 µM | TGI (CAKI-1 renal): 45.1 µM | GI50 (HCC-2998 colon): 17.1 µM | TGI (HCC-2998 colon): 31.9 µM | GI50 (BT-549 breast): 16.2 µM | TGI (BT-549 breast): 34.4 µM | GI50 (786-0 renal): 17.2 µM | TGI (786-0 renal): 46.6 µM | GI50 (COLO 205 colon): 20.7 µM | TGI (COLO 205 colon): 45.5 µM | GI50 (KM12 colon): 16.5 µM | TGI (KM12 colon): 33.7 µM | GI50 (NCI-H226 lung): 22.3 µM | TGI (NCI-H226 lung): 50.8 µM | GI50 (MDA-MB-435): 14 µM | TGI (MDA-MB-435): 31.9 µM | GI50 (DU-145 prostate): 19 µM | TGI (DU-145 prostate): 44 µM | GI50 (UO-31 renal): 16 µM | TGI (UO-31 renal): 59.7 µM | GI50 (SNB-19 CNS): 35.9 µM | TGI (SNB-19 CNS): > 100 µM | GI50 (OVCAR-3 ovarian): 13.6 µM | TGI (OVCAR-3 ovarian): 35.3 µM | GI50 (NCI-H522 lung): 18 µM | TGI (NCI-H522 lung): 40.2 µM | GI50 (HOP-62 NSCLC): 25.6 µM | TGI (HOP-62 NSCLC): 68.4 µM | GI50 (U251 CNS): 22.3 µM | TGI (U251 CNS): 57.4 µM | GI50 (SNB-75 CNS): 15.6 µM | TGI (SNB-75 CNS): 43 µM | GI50 (SF-539 CNS): 17.4 µM | TGI (SF-539 CNS): 35.3 µM | GI50 (HS 578T breast): 24.7 µM | TGI (HS 578T breast): 58.1 µM | GI50 (OVCAR-5 ovarian): 60.9 µM | TGI (OVCAR-5 ovarian): > 100 µM | GI50 (T-47D breast): 27.3 µM | TGI (T-47D breast): > 100 µM | GI50 (A498 renal): 20.5 µM | TGI (A498 renal): 45.5 µM | GI50 (M14 melanoma): 15.4 µM | TGI (M14 melanoma): 29.1 µM | GI50 (MDA-MB-231 breast): 18.1 µM | TGI (MDA-MB-231 breast): 44.8 µM | GI50 (HCT-116 colon): 16 µM | TGI (HCT-116 colon): 33.5 µM | GI50 (UACC-257 melanoma): 14.8 µM | TGI (UACC-257 melanoma): 29.7 µM | GI50 (NCI/ADR-RES ovarian): 21.7 µM | TGI (NCI/ADR-RES ovarian): 76.8 µM | GI50 (MALME-3M melanoma): 15.1 µM | TGI (MALME-3M melanoma): 34.1 µM | GI50 (SK-OV-3 ovarian): 29.5 µM | TGI (SK-OV-3 ovarian): 73.5 µM | GI50 (SN12C renal): 18.8 µM | TGI (SN12C renal): 36.5 µM | GI50 (NCI-H23 lung): 19.8 µM | TGI (NCI-H23 lung): 62.3 µM | GI50 (HT29 colon): 20.4 µM | TGI (HT29 colon): 94.7 µM | GI50 (SK-MEL-2 melanoma): 23.7 µM | TGI (SK-MEL-2 melanoma): 48.4 µM | GI50 (PC-3 prostate): 21.9 µM | TGI (PC-3 prostate): > 100 µM | GI50 (RPMI-8226 leukemia): 16.3 µM | TGI (RPMI-8226 leukemia): > 100 µM | GI50 (CCRF-CEM leukemia): 16.4 µM | TGI (CCRF-CEM leukemia): > 100 µM
